Reference: US20240165097A1, “PHARMACEUTICAL COMPOSITION FOR THE TREATMENT OF ALZHEIMER'S DISEASE OR DEMENTIA” (Heptares Therapeutics Limited, priority 2021, published 2024)
Where two headings read alike, the source gives them in different places.

Key:
[1] = test system: patients with mild-to-moderate AD; test: Example D: twelve-item neuropsychiatric inventory (NPI-12); format: in vivo, human
Procedure: Exploratory PD effects of HTL0018318 were examined via both behavioural (Cogstate neuropsychological test battery [NTB]) tests of cognitive function and electrophysiological (electroencephalogram [EEG] and evoked response potentials [ERPs]) biomarkers. Further details of each biomarker/test and outcome variables are provided below. Twelve-item neuropsychiatric inventory (NPI-12) scores were used to evaluate neuropsychiatric symptoms.
Statistical evaluation was performed using Statistical analysis software (SAS®, SAS Institute, Cary, NC). Changes from baseline in vital signs were analysed using a mixed model for repeated measures with fixed effects for baseline, treatment, time-point and treatment by time-point interaction. The exploratory PD endpoints were analysed using an analysis of covariance with change from baseline as the dependent variable, and baseline and treatment as covariates. The least square means (LSM) for each dose (and difference from placebo) are presented with the 90% CI, P-value, and ES. ES was calculated as the LSM difference from placebo divided by the pooled standard deviation. PD data were considered clinically meaningful when P-values were <0.10 and ESs were >0.4 (ie, moderate to large ES).

[2] = Example C: HTL0018318 plasma and urine pharmacokinetics; format: in vivo, human; conditions: for CL renal / Cmax / AUC / AUC(0-inf) / half-life / Tmax: human, oral; for Cmax / AUC / AUC(0-inf) / half-life / Tmax: plasma; for AUC: Tau = 24 hrs, read-out: AUC0-tau (mean); for AUC(0-inf): read-out: AUC0-inf (mean)
Procedure: On the days between, only pre-dose PK samples were taken. The last PK blood sample was taken between 7-14 days after the last HTL0018318 dose (Table 7).
For these calculations, data of 15 mg and 25 mg HTL0018318 were grouped together. […]
All PK analyses were performed in Phoenix 64 build 6.4.0.768 using WinNonlin 6.4. Statistical analysis was performed in R version 3.3.1 (2016-06-21) Copyright (C) 2016 The R Foundation for Statistical Computing (Platform: x86_64-w64-mingw32/x64 64-bit).

[3] = fifth dose, 15 and 25 mg grouped
[4] = first dose, 15 and 25 mg grouped

## CCOC(=O)N1C2CCC1CC(N1CCC3(CC1)CNC(=O)C3)C2 (stereo not shown) [HTL0018318, ethyl 3-(3-oxo-2,8-diazaspiro[4.5]dec-8-yl)-8-azabicyclo[3.2.1]octane-8-carboxylate]
[1]; 5 mg
  NPI-12 total score, ES: -0.73
  NPI-12 total score, LSM difference from placebo: −1.79
[1]; 15 mg
  NPI-12 total score, ES: −0.54
[1]; 25 mg
  NPI-12 total score, ES: −0.53
[2]; 15 mg + DPZ, 1st dose
  Ae (mean): 39.9%
  CL/F (mean): 14.7 L/h
  Cmax: 91.2 ng/mL
  AUC: 932 ng·h/mL
  AUC(0-inf): 1120 ng·h/mL
[2]; 15 mg + DPZ, 5th dose
  Ae (mean): 51.5%
  CL/F (mean): 14.0 L/h
  Cmax: 109 ng/mL
  AUC: 1150 ng·h/mL
[2]; 15 mg alone
  mean ratio AUC0-tau fifth dose / AUC0-inf first dose: 1.04
  mean ratio AUC0-tau fifth dose / AUC0-tau first dose: 1.27
[2]; 15 mg only, 1st dose
  Ae (mean): 39.2%
  CL/F (mean): 14.2 L/h
[2]; 15 mg only, 5th dose
  Ae (mean): 47.9%
  CL/F (mean): 14.0 L/h
[2]; 15 mg, donepezil co-dosed
  mean ratio AUC0-tau fifth dose / AUC0-inf first dose: 1.04
  mean ratio AUC0-tau fifth dose / AUC0-tau first dose: 1.23
[2]; 25 mg + DPZ, 1st dose
  Ae (mean): 41.1%
  CL/F (mean): 17.0 L/h
  Cmax: 139 ng/mL
  AUC: 1410 ng·h/mL
  AUC(0-inf): 1710 ng·h/mL
[2]; 25 mg + DPZ, 5th dose
  Ae (mean): 47.7%
  CL/F (mean): 16.0 L/h
  Cmax: 171 ng/mL
  AUC: 1740 ng·h/mL
[2]; 25 mg alone
  mean ratio AUC0-tau fifth dose / AUC0-inf first dose: 1.06
  mean ratio AUC0-tau fifth dose / AUC0-tau first dose: 1.23
[2]; 25 mg only, 1st dose
  Ae (mean): 32.6%
  CL/F (mean): 17.6 L/h
[2]; 25 mg only, 5th dose
  Ae (mean): 44.1%
  CL/F (mean): 16.6 L/h
[2]; 25 mg, donepezil co-dosed
  mean ratio AUC0-tau fifth dose / AUC0-inf first dose: 1.03
  mean ratio AUC0-tau fifth dose / AUC0-tau first dose: 1.21
[2]; daily dosing 15 or 25 mg
  pharmacokinetic steady-state reached: on or before the fifth daily dose
[2]; [3]
  ratio of AUC0-tau, in combination with donepezil vs alone: 1.00
  ratio of Cmax, in combination with donepezil vs alone: 1.04
  ratio of Cmin, in combination with donepezil vs alone: 0.911
  ratio of Tmax, in combination with donepezil vs alone: 0.974
[2]; [4]
  ratio of AUC0-24, in combination with donepezil vs alone: 1.02
  ratio of Cmax, in combination with donepezil vs alone: 1.05
  ratio of Tmax, in combination with donepezil vs alone: 1.01
[2]; plasma and urine, 25 mg + DPZ, 1st dose
  CL renal: 129 mL/min
[2]; plasma and urine, 25 mg + DPZ, 5th dose
  CL renal: 113 mL/min
[2]; plasma and urine, 25 mg, 25 mg only, 1st dose
  CL renal: 104 mL/min
[2]; plasma and urine, 25 mg, 25 mg only, 5th dose
  CL renal: 109 mL/min
[2]; 15 mg + DPZ, 1st dose, read-out: Half-life (mean) (converted)
  half-life: 8.97 h
[2]; 15 mg + DPZ, 1st dose, read-out: Tmax (median)
  Tmax: 2.5 h
[2]; 15 mg + DPZ, 5th dose, read-out: Half-life (mean) (converted)
  half-life: 11.6 h
[2]; 15 mg + DPZ, 5th dose, read-out: Tmax (median)
  Tmax: 1.74 h
[2]; 15 mg, 15 mg only, 1st dose
  Cmax: 83.4 ng/mL
  AUC: 919 ng·h/mL
  AUC(0-inf): 1130 ng·h/mL
[2]; 15 mg, 15 mg only, 1st dose, read-out: Half-life (mean) (converted)
  half-life: 9.25 h
[2]; 15 mg, 15 mg only, 1st dose, read-out: Tmax (median)
  Tmax: 2 h
[2]; 15 mg, 15 mg only, 5th dose
  Cmax: 103 ng/mL
  AUC: 1180 ng·h/mL
[2]; 15 mg, 15 mg only, 5th dose, read-out: Half-life (mean) (converted)
  half-life: 13.8 h
[2]; 15 mg, 15 mg only, 5th dose, read-out: Tmax (median)
  Tmax: 2.05 h
[2]; 25 mg + DPZ, 1st dose, read-out: Half-life (mean) (converted)
  half-life: 8.73 h
[2]; 25 mg + DPZ, 1st dose, read-out: Tmax (median)
  Tmax: 1.76 h
[2]; 25 mg + DPZ, 5th dose, read-out: Half-life (mean) (converted)
  half-life: 10.7 h
[2]; 25 mg + DPZ, 5th dose, read-out: Tmax (median)
  Tmax: 2 h
[2]; 25 mg, 25 mg only, 1st dose
  Cmax: 135 ng/mL
  AUC: 1370 ng·h/mL
  AUC(0-inf): 1650 ng·h/mL
[2]; 25 mg, 25 mg only, 1st dose, read-out: Half-life (mean) (converted)
  half-life: 8.52 h
[2]; 25 mg, 25 mg only, 1st dose, read-out: Tmax (median)
  Tmax: 1.75 h
[2]; 25 mg, 25 mg only, 5th dose
  Cmax: 162 ng/mL
  AUC: 1710 ng·h/mL
[2]; 25 mg, 25 mg only, 5th dose, read-out: Half-life (mean) (converted)
  half-life: 13.4 h
[2]; 25 mg, 25 mg only, 5th dose, read-out: Tmax (median)
  Tmax: 1.76 h
[2]; 25 mg, 15 and 25 mg, with and without donepezil, read-out: Tmax, range over groups
  Tmax: 1.74 to 2.5 h
[2]; 25 mg, 15 and 25 mg, with and without donepezil, read-out: half-life following the fifth dose, range over groups
  half-life: 10.7 to 13.8 h
[2]; urine and plasma, 15 mg + DPZ, 1st dose
  CL renal: 109 mL/min
[2]; urine and plasma, 15 mg + DPZ, 5th dose
  CL renal: 109 mL/min
[2]; urine and plasma, 15 mg, 15 mg only, 1st dose
  CL renal: 109 mL/min
[2]; urine and plasma, 15 mg, 15 mg only, 5th dose
  CL renal: 104 mL/min
